Measured values published in patent US4151268A, “Barbituric acid antigens and antibodies specific therefor” (Hoffmann-La Roche Inc., priority 1977, dated 1979).

Legend:
[1] = test system: barbituric acid specific antibody (antisera obtained in Example 2); experiment: Comparison runs: recognition of other barbituric acid derivatives and related compounds by the antibody; conditions: at similar concentrations
[2] = test system: barbituric acid specific antibody (antisera obtained in Example 2); experiment: Radioimmunoassay: competitive inhibition of binding of [C14] pentobarbital to antiserum (ammonium sulfate precipitation); conditions: 4° C., overnight

CCC1(CC)C(=O)NC(=O)NC1=O [barbital]
recognition / binding by the antibody [1]: capable of recognizing

CN1C(=O)NC(=O)C(C)(C2=CCCCC2)C1=O (centres unmarked) [hexobarbital]
recognition / binding by the antibody [1]: failed to bind

CCCC(C)C1(CC)C(=O)NC(=O)NC1=O (centres unmarked) [pentobarbital]
recognition / binding by the antibody [1]: capable of recognizing | Percent inhibition of binding of pentobarbital-C^14 ([2]; 1 nanogram non-radioactive pentobarbital added): 10% | Percent inhibition of binding of pentobarbital-C^14 ([2]; 5 nanograms non-radioactive pentobarbital added, sample volume 10 μl): 20% | Percent inhibition of binding of pentobarbital-C^14 ([2]; 10 nanograms non-radioactive pentobarbital added): 28% | Percent inhibition of binding of pentobarbital-C^14 ([2]; 20 nanograms non-radioactive pentobarbital added): 43% | Percent inhibition of binding of pentobarbital-C^14 ([2]; 30 nanograms non-radioactive pentobarbital added): 52% | Percent inhibition of binding of pentobarbital-C^14 ([2]; 40 nanograms non-radioactive pentobarbital added): 63%

CCC1(c2ccccc2)C(=O)NC(=O)NC1=O [phenobarbital]
recognition / binding by the antibody [1]: capable of recognizing

CCCC(C)C1(CC)C(=O)NC(=S)NC1=O (centres unmarked) [thiopental]
recognition / binding by the antibody [1]: failed to bind
